Measurements from US20250011368A1, “DLL3 TARGETING PEPTIDES AND CONSTRUCTS THEREOF” (MARIANA ONCOLOGY INC., priority 2023, published 2025).
Numbered stars: 1 amine (or outer) side, 2 acyl side, 3 side chain; on linkers, the order of the positions; unused ones are H or OH. Bridge positions count the residues as written; N and C are the ends. Square brackets hold non-standard residues; d marks the D form. Peptide text beside a SMILES is read from it. * marks the point of attachment. Ala(piperidin-4-yl) = O=C([C@H](CC1CCN([*:3])CC1)N[*:1])[*:2]; DOTA = O=C(O)CN1CCN(CC(=O)O)CCN(CC(=O)*)CCN(CC(=O)O)CC1; 2Nal = N[C@@H](Cc1ccc2ccccc2c1)C(=O)O; 3Pal = N[C@@H](Cc1cccnc1)C(=O)O; 4Pal = N[C@@H](Cc1ccncc1)C(=O)O

What was measured:
[1] = target: T1, human DLL3 (Homo sapiens, UniProt Q9NYJ7); assay: Affinity determination by Surface Plasmon Resonance (SPR); type: binding; settings: 25° C., biotinylated human DLL3 immobilized on streptavidin sensor chip, 1:1 binding model; read-out: SPR KD
T1 sequence (Q9NYJ7 27-618): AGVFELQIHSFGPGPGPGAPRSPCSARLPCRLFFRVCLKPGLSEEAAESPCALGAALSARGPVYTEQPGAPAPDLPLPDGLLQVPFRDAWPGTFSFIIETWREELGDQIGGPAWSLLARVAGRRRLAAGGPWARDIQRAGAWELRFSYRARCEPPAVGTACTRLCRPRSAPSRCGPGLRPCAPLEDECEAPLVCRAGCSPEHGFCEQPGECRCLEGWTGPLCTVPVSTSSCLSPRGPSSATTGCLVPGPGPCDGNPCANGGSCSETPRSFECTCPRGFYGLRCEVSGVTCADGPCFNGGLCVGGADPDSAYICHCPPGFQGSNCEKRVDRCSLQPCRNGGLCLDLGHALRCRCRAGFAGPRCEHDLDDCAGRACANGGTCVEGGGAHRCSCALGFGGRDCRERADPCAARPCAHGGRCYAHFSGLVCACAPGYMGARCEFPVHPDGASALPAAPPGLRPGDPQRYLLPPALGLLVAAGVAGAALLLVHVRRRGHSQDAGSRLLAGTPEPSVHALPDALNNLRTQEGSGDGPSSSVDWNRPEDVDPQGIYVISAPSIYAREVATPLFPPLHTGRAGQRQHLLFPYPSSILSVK
Outline: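 Biotinylated human DLL3 was captured on a streptavidin chip with a reference surface. Compounds at several concentrations were injected at 100 μL/minute in phosphate buffer (137 mM NaCl, 2.7 mM KCl, 0.05% P20, 2% DMSO). Affinity and kinetics came from 1:1 model fits of the sensorgrams.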

[2] = test system: CT26.DLL3 cells; assay: Cell binding (total uptake) of [177Lu]Lu-test peptide, CT26.DLL3 cells; type: cell-based; settings: 1 hour at 37° C.
Protocol: (§1) [^177Lu]LuCl3 was received from venders in HCl solution. For every mCi of [^177Lu]LuCl3 added to the reaction vial (1.5 mL Eppendorf vial), ammonium acetate buffer (0.2 M, pH 4.9, 100 μL, containing 1% w/v ascorbic acid and 6% v/v ethanol) and peptide conjugate (1 nmol). A peptide conjugate of the present disclosure is also referred to herein as a “chelator-peptide”. The pH of the solution was determined to be approximately 5 by using pH strips. The reaction vial was incubated at 80° C., 700 RPM for 17-20 minutes. A sample from the reaction was analyzed by RP-HPLC using an Agilent Infinity II 1260 HPLC to determine reaction completion and radiochemical purity of [^177Lu]Lu-chelator-peptide. HPLC conditions: Waters XBridge BEH C18 Column, 130 Å, 3.5 um, 4.6 mm×250 mm; mobile phase: Solvent A=water (with 0.1% formic acid), solvent B=acetonitrile (with 0.1% formic acid). Gradients: 25-45% B in 10 minutes, 45-65% B in 12 minutes, 65-90% in 6 minutes at a flow rate of 0.5 mL/minute. Required amounts of the product was formulated in 1% PBSA for cell studies.
(§2) The study was conducted using SHP-77, CT26.WT, and CT26.DLL3 cells (Table 7) Adherent cell studies: The cells were cultured in appropriate culture media (20 mL) in tissue culture treated T150 flasks at 37° C. and 5% CO2. Adherent cells were detached (60-70% confluent) using 5 mL Versene at 37° C. for 3 minutes. After confirming the viability using countess and count of detached cells using Trypan blue, the cells were centrifuged at 4° C. for 5 minutes (1,000 rpm). The cell pellet obtained was washed once with PBS and resuspended in 1% PBSA to obtain the desired cell concentration (5-25 million cells/mL).
(§3) Cell numbers used for the assay were in the range of 5 million cells/condition −25 million cells/condition.
(§4) Total uptake: Cells were incubated with 300 μL (0.8 μCi) of the incubation buffer (containing radiolabeled peptide [^177Lu] Lu-test peptide) for 1 hour at 37° C. (Table 8). Post incubation, the cells were pelleted and washed 2 times using cold PBS+1% BSA. The supernatant and washes were combined and counted together as “unbound fraction” in a gamma counter. The cells were then resuspended in 300 μL of 1% PBS+1% BSA and counted in the gamma counter as “bound fraction”.
(§5) In these Tables, “A” represents %≤25; “B” represents 25<%≤50; “C” represents %>50.

[3] = test system: SHP-77 tumors; assay: Ex vivo biodistribution of radiolabeled peptides in nude mice bearing SHP-77 tumors; settings: [177Lu]Lu labelling, nude mice bearing SHP-77 tumors (n = 3), 24 hours post-injection
Protocol: Mice were intravenously injected (via the lateral tail vein) with a bolus dose of the radiolabeled peptides for ex vivo biodistribution studies when tumor volumes were in range of 200-400 mm^3 for xenograft mice and when age of the mice was 5-7 weeks for tumor naïve mice studies. To assess the amount of radionuclide injected into individual mice the syringe was assayed in a dose calibrator before and after injection for [^177Lu]Lu-peptide.
Mice were euthanized at pre-determined time points and selected tissues were resected and collected into pre-weighed tubes. The tubes were then reweighed post resection, the difference giving the weight of each tissue. Radioactivity in each tissue was measured using a gamma counter. Counts were decay corrected to the time of injection and percentage of injected activity per gram (% IA/g) was calculated for each tissue based on the injected activity into each individual mouse. Injected activity was converted to counts based on the sensitivity of the gamma counter. The counts in tissue were then converted to the percentage of injected activity and this was divided by the mass of tissue to give % IA/g.

[4] = test system: CT26.DLL3 cells; assay: Internalization (out of bound fraction) of [177Lu]Lu-test peptide, CT26.DLL3 cells; type: cell-based; settings: 1 hour at 37° C., glycine pH 2.5 wash
Protocol: as §1, §2, §3, §4
Internalization: The resuspended cells in 300 μl of 1% PBSA and counted in the gamma counter as “bound fraction” were collected in 1.5 mL Eppendorf tube and pelleted. The pelleted cells were incubated with 300 μl of 50 mM Glycine pH=2.5 for 3 minutes and then pelleted discarding the supernatant. This process was repeated one more time. The pelleted cells were washed with 300 μl of cold 1% PBSA and then resuspended in 300 μl 0.3M NaOH. This was counted in the gamma counter as “internalized fraction”.
as §5

Structure (SMILES) | Kd [1] | % Binding [2] | kidney uptake (% IA/g) [3] | tumor uptake (% IA/g) [3] | % Internalization (out of bound fraction) [4]
CC[C@H](C)[C@H](NC(=O)[C@@H](NC(=O)[C@H](Cc1c[nH]c2ccccc12)NC(C)=O)[C@@H](C)O)C(=O)N[C@H]1CSSC[C@@H](C(=O)N[C@@H](Cc2c[nH]c3ccccc23)C(=O)N2CCC[C@H]2C(=O)N[C@H](CCCCNC(=O)CN2CCN(CC(=O)O)CCN(CC(=O)O)CCN(CC(=O)O)CC2)C(N)=O)NC(=O)[C@H](CC(=O)O)NC(=O)[C@H](Cc2cnc[nH]2)NC(=O)[C@H](Cc2ccc3ccccc3c2)NC(=O)[C@H](CC(N)=O)NC(=O)[C@H](Cc2ccncc2)NC1=O [compound 264, Ac-W-T-I-C(3)-(4Pya)-N-(2Nal)-H-D-C(3)-W-P-[D-Lys(DOTA)]-NH2] (Ac-WTIC[4Pal]N[2Nal]HDCWP[dK](DOTA)-NH2; disulfide 4-10) | < 1 nM | A (%≤25) | C (0 < % IA/g ≤ 10 in kidney) | A (0 < % IA/g ≤ 5 in tumor) | B (25<%≤50)
CC[C@H](C)[C@H](NC(=O)[C@@H](NC(=O)[C@H](Cc1c[nH]c2ccccc12)NC(C)=O)[C@@H](C)O)C(=O)N[C@H]1CSSC[C@@H](C(=O)N[C@@H](Cc2c[nH]c3ccccc23)C(=O)N2CCC[C@H]2C(=O)N[C@H](CCCCNC(=O)CN2CCN(CC(=O)O)CCN(CC(=O)O)CCN(CC(=O)O)CC2)C(N)=O)NC(=O)[C@H](CC(N)=O)NC(=O)[C@H](Cc2cnc[nH]2)NC(=O)[C@H](Cc2ccc3ccccc3c2)NC(=O)[C@H](CC(N)=O)NC(=O)[C@H](CC(N)=O)NC1=O [compound 211, Ac-W-T-I-C(3)-N-N-(2Nal)-H-(Asn)-C(3)-W-P-[D-Lys(DOTA)]-NH2] (Ac-WTICNN[2Nal]HNCWP[dK](DOTA)-NH2; disulfide 4-10) | < 1 nM | A (%≤25) | D (% IA/g > 10 in kidney) | A (0 < % IA/g ≤ 5 in tumor) | B (25<%≤50)
CC[C@H](C)[C@H](NC(=O)[C@@H](NC(=O)[C@H](Cc1c[nH]c2ccccc12)NC(C)=O)[C@@H](C)O)C(=O)N[C@H]1CSSC[C@@H](C(=O)N[C@@H](Cc2c[nH]c3ccccc23)C(=O)N2CCC[C@H]2C(=O)N[C@H](CCCCNC(=O)CN2CCN(CC(=O)O)CCN(CC(=O)O)CCN(CC(=O)O)CC2)C(N)=O)NC(=O)[C@H](CC(=O)O)NC(=O)[C@H](Cc2cnc[nH]2)NC(=O)[C@H](Cc2ccc3ccccc3c2)NC(=O)[C@H](CC(N)=O)NC(=O)[C@H](Cc2cccnc2)NC1=O [compound 263, Ac-W-T-I-C(3)-(3Pya)-N-(2Nal)-H-D-C(3)-W-P-[D-Lys(DOTA)]-NH2] (Ac-WTIC[3Pal]N[2Nal]HDCWP[dK](DOTA)-NH2; disulfide 4-10) | < 1 nM | A (%≤25) | C (0 < % IA/g ≤ 10 in kidney) | A (0 < % IA/g ≤ 5 in tumor) | B (25<%≤50)
CC[C@H](C)[C@H](NC(=O)[C@@H](NC(=O)[C@H](Cc1c[nH]c2ccccc12)NC(C)=O)[C@@H](C)O)C(=O)N[C@H]1CSSC[C@@H](C(=O)N[C@@H](Cc2c[nH]c3ccccc23)C(=O)N2CCC[C@H]2C(=O)N[C@H](CCCCNC(=O)CN2CCN(CC(=O)O)CCN(CC(=O)O)CCN(CC(=O)O)CC2)C(N)=O)NC(=O)[C@H](CC(=O)O)NC(=O)[C@H](Cc2cnc[nH]2)NC(=O)[C@H](Cc2ccc3ccccc3c2)NC(=O)[C@H](Cc2ccncc2)NC(=O)[C@H](CC(N)=O)NC1=O [compound 266, Ac-W-T-I-C(3)-N-(4Pya)-(2Nal)-H-D-C(3)-W-P-[D-Lys(DOTA)]-NH2] (Ac-WTICN[4Pal][2Nal]HDCWP[dK](DOTA)-NH2; disulfide 4-10) | < 1 nM | A (%≤25) | C (0 < % IA/g ≤ 10 in kidney) | A (0 < % IA/g ≤ 5 in tumor) | A (%≤25)
CC[C@H](C)[C@H](NC(=O)[C@@H](NC(=O)[C@H](Cc1c[nH]c2ccccc12)NC(C)=O)[C@@H](C)O)C(=O)N[C@H]1CSSC[C@@H](C(=O)N[C@@H](Cc2c[nH]c3ccccc23)C(=O)N2CCC[C@H]2C(=O)N[C@H](CCCCNC(=O)CN2CCN(CC(=O)O)CCN(CC(=O)O)CCN(CC(=O)O)CC2)C(N)=O)NC(=O)[C@H](CC(=O)O)NC(=O)[C@H](Cc2cnc[nH]2)NC(=O)[C@H](Cc2ccc3ccccc3c2)NC(=O)[C@H](CC2CCNCC2)NC(=O)[C@H](CC(N)=O)NC1=O [compound 267, Ac-W-T-I-C(3)-N-[3-(4-piperidinyl)-Ala]-(2Nal)-H-D-C(3)-W-P-[D-Lys(DOTA)]-NH2] (Ac-WTICN[Ala(piperidin-4-yl)][2Nal]HDCWP[dK](DOTA)-NH2; disulfide 4-10) | < 1 nM | A (%≤25) | C (0 < % IA/g ≤ 10 in kidney) | A (0 < % IA/g ≤ 5 in tumor) | B (25<%≤50)
CC[C@H](C)[C@H](NC(=O)[C@@H](NC(=O)[C@H](Cc1c[nH]c2ccccc12)NC(C)=O)[C@@H](C)O)C(=O)N[C@H]1CSSC[C@@H](C(=O)N[C@@H](Cc2c[nH]c3ccccc23)C(=O)N2CCC[C@H]2C(=O)N[C@H](CCCCNC(=O)CN2CCN(CC(=O)O)CCN(CC(=O)O)CCN(CC(=O)O)CC2)C(N)=O)NC(=O)[C@H](CC(=O)O)NC(=O)[C@H](Cc2cnc[nH]2)NC(=O)[C@H](Cc2ccc3ccccc3c2)NC(=O)[C@H](CC(N)=O)NC(=O)[C@H](CC2CCNCC2)NC1=O [compound 260, Ac-W-T-I-C(3)-[3-(4-piperidinyl)-Ala]-N-(2Nal)-H-D-C(3)-W-P-[D-Lys(DOTA)]-NH2] (Ac-WTIC[Ala(piperidin-4-yl)]N[2Nal]HDCWP[dK](DOTA)-NH2; disulfide 4-10) | < 1 nM | B (25<%≤50) | C (0 < % IA/g ≤ 10 in kidney) | A (0 < % IA/g ≤ 5 in tumor) | 
